Test results: article doi:10.1101/2023.11.24.568596v1 (biorxiv, 2023)
One block for each molecule: values may come before it.

Tests used:
Conditions in all cases: binder
[1] = biological target: PAK1 (Homo sapiens, UniProt Q13153)
[2] = biological target: T1, MST2 (Homo sapiens, UniProt Q13188)
T1 sequence (Q13188 1-491): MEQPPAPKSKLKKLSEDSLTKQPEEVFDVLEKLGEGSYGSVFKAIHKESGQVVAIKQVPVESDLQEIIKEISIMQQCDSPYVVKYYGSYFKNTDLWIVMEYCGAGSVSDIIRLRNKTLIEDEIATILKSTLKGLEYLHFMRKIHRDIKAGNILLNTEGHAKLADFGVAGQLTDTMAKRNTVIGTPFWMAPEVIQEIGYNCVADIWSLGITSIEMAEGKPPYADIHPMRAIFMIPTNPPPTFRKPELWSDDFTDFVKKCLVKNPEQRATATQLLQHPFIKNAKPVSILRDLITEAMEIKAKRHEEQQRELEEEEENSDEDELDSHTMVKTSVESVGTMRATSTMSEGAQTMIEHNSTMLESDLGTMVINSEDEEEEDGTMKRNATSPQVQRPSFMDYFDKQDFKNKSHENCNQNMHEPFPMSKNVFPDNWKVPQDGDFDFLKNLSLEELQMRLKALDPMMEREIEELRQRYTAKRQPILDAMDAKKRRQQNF

[3] = biological target: T2, FECH (Homo sapiens, UniProt P22830)
T2 sequence (P22830 1-423): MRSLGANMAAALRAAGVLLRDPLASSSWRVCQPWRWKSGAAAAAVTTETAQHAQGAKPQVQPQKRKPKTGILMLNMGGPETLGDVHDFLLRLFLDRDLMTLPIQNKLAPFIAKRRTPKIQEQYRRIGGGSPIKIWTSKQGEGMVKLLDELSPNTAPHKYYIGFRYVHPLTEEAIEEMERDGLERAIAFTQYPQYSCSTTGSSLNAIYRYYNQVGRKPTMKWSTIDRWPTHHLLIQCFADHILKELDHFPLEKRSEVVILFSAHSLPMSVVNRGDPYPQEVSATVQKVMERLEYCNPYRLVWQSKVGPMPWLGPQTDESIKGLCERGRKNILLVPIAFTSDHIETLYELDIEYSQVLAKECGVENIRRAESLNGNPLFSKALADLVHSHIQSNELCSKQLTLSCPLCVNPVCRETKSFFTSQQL

[4] = biological target: T3, NQO2A (Homo sapiens, UniProt P16083)
T3 sequence (P16083 1-231): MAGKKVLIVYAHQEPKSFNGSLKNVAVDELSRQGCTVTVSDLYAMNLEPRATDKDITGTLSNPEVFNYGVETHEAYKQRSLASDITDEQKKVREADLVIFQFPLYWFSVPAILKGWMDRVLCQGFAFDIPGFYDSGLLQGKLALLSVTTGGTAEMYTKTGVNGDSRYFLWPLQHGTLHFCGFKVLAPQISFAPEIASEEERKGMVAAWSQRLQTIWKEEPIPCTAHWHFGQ

[5] = biological target: CK1e (Homo sapiens, UniProt P49674)
[6] = biological target: T4, MAP2K7 (Homo sapiens, UniProt O14733)
T4 sequence (O14733 1-419): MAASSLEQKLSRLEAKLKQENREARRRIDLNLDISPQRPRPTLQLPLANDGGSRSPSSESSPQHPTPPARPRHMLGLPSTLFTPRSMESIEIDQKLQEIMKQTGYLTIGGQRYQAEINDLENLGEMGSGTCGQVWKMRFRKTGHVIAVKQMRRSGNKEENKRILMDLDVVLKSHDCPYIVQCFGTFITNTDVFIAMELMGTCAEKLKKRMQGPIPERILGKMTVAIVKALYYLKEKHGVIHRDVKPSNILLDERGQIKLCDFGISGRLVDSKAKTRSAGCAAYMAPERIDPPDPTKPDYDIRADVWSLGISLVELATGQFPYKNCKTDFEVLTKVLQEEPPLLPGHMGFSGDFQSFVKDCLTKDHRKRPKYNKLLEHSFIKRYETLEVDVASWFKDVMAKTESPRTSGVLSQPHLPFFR

[7] = biological target: MARK3 (Homo sapiens, UniProt P27448)
[8] = biological target: CaMK2d (Homo sapiens, UniProt Q13557)
[9] = biological target: T5, DYRK2 (Homo sapiens, UniProt Q92630)
T5 sequence (Q92630 1-601): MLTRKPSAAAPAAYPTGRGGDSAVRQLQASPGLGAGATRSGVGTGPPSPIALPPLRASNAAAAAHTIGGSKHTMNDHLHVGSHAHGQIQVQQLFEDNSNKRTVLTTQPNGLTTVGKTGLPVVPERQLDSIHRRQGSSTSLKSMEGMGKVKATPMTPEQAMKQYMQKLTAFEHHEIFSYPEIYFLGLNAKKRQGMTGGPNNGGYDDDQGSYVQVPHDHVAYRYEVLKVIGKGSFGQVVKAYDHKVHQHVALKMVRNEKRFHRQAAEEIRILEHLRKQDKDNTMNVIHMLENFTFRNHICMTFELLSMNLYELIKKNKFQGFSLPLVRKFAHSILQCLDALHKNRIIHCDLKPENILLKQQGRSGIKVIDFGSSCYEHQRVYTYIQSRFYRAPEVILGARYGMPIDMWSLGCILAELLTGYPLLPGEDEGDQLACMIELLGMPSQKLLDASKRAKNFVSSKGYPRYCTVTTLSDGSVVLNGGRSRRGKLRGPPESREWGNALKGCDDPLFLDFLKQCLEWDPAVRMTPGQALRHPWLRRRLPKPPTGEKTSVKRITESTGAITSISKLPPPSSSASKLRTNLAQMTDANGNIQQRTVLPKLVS

PAK1, sequence (Q13153 whole entry): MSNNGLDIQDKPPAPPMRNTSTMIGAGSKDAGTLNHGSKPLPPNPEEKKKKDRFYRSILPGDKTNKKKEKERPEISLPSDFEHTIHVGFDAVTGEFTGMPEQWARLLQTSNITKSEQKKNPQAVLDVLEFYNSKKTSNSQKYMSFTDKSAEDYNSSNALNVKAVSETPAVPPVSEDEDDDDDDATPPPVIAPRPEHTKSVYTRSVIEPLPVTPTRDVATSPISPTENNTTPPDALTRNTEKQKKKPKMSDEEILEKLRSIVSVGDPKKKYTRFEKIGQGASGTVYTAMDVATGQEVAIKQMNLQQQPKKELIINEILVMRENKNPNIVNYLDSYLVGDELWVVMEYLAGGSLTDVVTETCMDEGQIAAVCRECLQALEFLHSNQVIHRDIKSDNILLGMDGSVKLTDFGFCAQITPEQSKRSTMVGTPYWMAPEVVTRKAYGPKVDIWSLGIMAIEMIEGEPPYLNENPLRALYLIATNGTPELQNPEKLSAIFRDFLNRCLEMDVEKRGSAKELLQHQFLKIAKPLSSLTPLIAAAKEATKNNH
MARK3, sequence (P27448 whole entry): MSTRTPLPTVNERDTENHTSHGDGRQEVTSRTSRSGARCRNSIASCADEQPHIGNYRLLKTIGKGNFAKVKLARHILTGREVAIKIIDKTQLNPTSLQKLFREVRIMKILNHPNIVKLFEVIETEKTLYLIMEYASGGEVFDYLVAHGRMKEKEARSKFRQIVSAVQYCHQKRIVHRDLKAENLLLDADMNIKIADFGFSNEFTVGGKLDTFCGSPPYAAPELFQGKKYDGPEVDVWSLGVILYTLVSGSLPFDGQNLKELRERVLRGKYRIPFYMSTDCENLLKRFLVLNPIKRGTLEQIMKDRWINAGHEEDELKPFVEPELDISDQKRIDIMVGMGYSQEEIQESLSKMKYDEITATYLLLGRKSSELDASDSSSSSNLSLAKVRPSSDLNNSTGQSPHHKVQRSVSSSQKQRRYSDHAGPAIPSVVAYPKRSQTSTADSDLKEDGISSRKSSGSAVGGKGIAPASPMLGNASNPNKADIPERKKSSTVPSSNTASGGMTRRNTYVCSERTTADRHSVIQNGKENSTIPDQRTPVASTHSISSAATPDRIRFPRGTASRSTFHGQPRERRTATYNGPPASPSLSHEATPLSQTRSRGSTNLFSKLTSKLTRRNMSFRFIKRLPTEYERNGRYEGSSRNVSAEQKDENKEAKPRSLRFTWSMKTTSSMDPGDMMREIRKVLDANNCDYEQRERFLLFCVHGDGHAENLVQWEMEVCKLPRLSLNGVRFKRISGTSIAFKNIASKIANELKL
CK1e, sequence (P49674 whole entry): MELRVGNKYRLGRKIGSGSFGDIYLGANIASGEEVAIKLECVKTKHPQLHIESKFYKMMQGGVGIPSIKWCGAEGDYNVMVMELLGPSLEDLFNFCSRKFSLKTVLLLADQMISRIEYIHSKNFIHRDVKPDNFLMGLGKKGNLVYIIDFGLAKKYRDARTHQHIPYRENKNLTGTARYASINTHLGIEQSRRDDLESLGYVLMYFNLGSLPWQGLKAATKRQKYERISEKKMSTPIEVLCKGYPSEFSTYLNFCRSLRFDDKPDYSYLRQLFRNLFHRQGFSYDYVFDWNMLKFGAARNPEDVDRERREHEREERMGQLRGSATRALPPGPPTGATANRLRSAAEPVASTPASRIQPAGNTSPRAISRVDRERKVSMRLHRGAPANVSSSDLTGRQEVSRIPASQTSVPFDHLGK
CaMK2d, sequence (Q13557 whole entry): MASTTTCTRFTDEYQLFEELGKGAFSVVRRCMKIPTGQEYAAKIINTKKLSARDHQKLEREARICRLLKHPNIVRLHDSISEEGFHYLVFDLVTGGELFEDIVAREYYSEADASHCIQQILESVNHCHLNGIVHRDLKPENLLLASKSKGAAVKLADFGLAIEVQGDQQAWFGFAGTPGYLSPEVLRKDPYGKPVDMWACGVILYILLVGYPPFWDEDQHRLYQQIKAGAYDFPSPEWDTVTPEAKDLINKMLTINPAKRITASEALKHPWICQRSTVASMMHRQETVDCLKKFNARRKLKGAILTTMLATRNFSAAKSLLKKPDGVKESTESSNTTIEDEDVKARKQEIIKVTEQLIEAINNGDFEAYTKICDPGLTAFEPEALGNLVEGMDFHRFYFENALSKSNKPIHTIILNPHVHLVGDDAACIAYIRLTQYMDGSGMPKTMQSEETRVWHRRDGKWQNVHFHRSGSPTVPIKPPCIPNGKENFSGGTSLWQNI

dTm PAK1 [1]: 6.5 °C
dTm MST2 [2]: 7.9 °C
SMILES: CNc1ncc2cc(-c3ccc(-c4cccc(C)n4)cc3Cl)c(=O)n(CCCCN)c2n1 [compound 20, MRLW5]

ΔTm MR24 (24) [3]: -0.5 °C
ΔTm MR24 (24) [4]: 0.3 °C
ΔTm MR24 (24) [5]: 6.4 °C
ΔTm MR24 (24) [6]: 3.0 °C
SMILES: Cc1cccc(-c2ccc(-c3cc4cnc(NC(CO)CO)nc4n(CCCCN)c3=O)c(Cl)c2)n1 [compound 24, 8-(4-Aminobutyl)-6-(2-chloro-4-(6-methylpyridin-2-yl)phenyl)-2-((1,3-dihydroxypropan-2-yl)amino)pyrido[2,3-d]pyrimidin-7(8H)-one]

ΔTm 25 [3]: 3.0 °C
ΔTm 25 [4]: 0.5 °C
ΔTm 25 [5]: 8.0 °C
ΔTm 25 [6]: 6.7 °C
SMILES: Cc1cccc(-c2ccc(-c3cc4cnc(NCCCc5ccc(N)cc5)nc4n(CCCCN)c3=O)c(Cl)c2)n1 [compound 25, 8-(4-Aminobutyl)-2-((3-(4-aminophenyl)propyl)amino)-6-(2-chloro-4-(6-methylpyridin-2-yl)phenyl)pyrido[2,3-d]pyrimidin-7(8H)-one]

dTm 33 [7]: 11.5 °C
dTm 33 [8]: -0.2 °C
dTm 33 [9]: -1.0 °C
SMILES: Cc1cccc(-c2ccc(-c3cc4cnc(Nc5ccc(F)c(CO)c5)nc4n(CCCCN)c3=O)c(Cl)c2)n1 [compound 33, 8-(4-Aminobutyl)-6-(2-chloro-4-(6-methylpyridin-2-yl)phenyl)-2-((4-fluoro-3-(hydroxymethyl)phenyl)amino)pyrido[2,3-d]pyrimidin-7(8H)-one]

dTm 34 [7]: 5.1 °C
dTm 34 [8]: -0.2 °C
dTm 34 [9]: 0.0 °C
SMILES: COc1ccc(O)c(Nc2ncc3cc(-c4ccc(-c5cccc(C)n5)cc4Cl)c(=O)n(CCCCN)c3n2)c1 [compound 34, 8-(4-Aminobutyl)-6-(2-chloro-4-(6-methylpyridin-2-yl)phenyl)-2-((2-hydroxy-5-methoxy-phenyl)amino)pyrido[2,3-d]pyrimidin-7(8H)-one]

Further lines, the molecule ahead of its results:

SMILES: CNc1ncc2cc(-c3ccc(-c4cccc(C)n4)cc3Cl)c(=O)n(CCC3CCNCC3)c2n1 [compound 22, 6-(2-Chloro-4-(6-methylpyridin-2-yl)phenyl)-2-(methylamino)-8-(2-(piperidin-4-yl)ethyl)pyrido[2,3-d]pyrimidin-7(8H)-one]
dTm PAK1 [1]: 8.6 °C
dTm MST2 [2]: 8.0 °C
ΔTm 22 [3]: -0.3 °C
ΔTm 22 [4]: -0.1 °C
ΔTm 22 [5]: 6.8 °C
ΔTm 22 [6]: 4.3 °C

SMILES: CNc1ncc2cc(-c3ccc(-c4cccc(C)n4)cc3Cl)c(=O)n(C[C@H]3CC[C@H](N)CC3)c2n1 [compound 23, 23]
dTm PAK1 [1]: 8.4 °C
dTm MST2 [2]: 10.8 °C
ΔTm 23 [6]: 7.1 °C

SMILES: Cc1cccc(-c2ccc(-c3cc4cnc(NCCCN5CCOCC5)nc4n(CCCCN)c3=O)c(Cl)c2)n1 [compound 26, MR26]
ΔTm MR26 (26) [3]: 0.3 °C
ΔTm MR26 (26) [4]: 0.1 °C
ΔTm MR26 (26) [5]: 7.3 °C
ΔTm MR26 (26) [6]: 3.1 °C

SMILES: COc1cc(N2CCOCC2)ccc1Nc1ncc2cc(-c3ccc(-c4cccc(C)n4)cc3Cl)c(=O)n(CCCCN)c2n1 [compound 35, 8-(4-Aminobutyl)-6-(2-chloro-4-(6-methylpyridin-2-yl)phenyl)-2-((2-methoxy-4-morpholino-phenyl)amino)pyrido[2,3-d]pyrimidin-7(8H)-one]
dTm 35 [7]: 6.9 °C
dTm 35 [8]: -0.9 °C
dTm 35 [9]: -0.6 °C

SMILES: COc1cc(N2CCN(C)CC2)ccc1Nc1ncc2cc(-c3ccc(-c4cccc(C)n4)cc3Cl)c(=O)n(CCCCN)c2n1 [compound 36, 8-(4-Aminobutyl)-6-(2-chloro-4-(6-methylpyridin-2-yl)phenyl)-2-((2-methoxy-4-(4-methylpiperazin-1-yl)phenyl)amino)pyrido[2,3-d]pyrimidin-7(8H)-one]
dTm 36 [7]: 8.5 °C
dTm 36 [8]: -0.2 °C
dTm 36 [9]: -0.4 °C
